Consider 17 compounds from paper PMC12557365 (Journal of Medicinal Chemistry, 2025).

Where two headings read alike, the source gives them in different places.

In one data set the target is SARS-CoV-2 3CL^pro (Severe acute respiratory syndrome coronavirus 2, UniProt P0DTD1). Nature of the data set: biochemical. It counts as biochemical.
In data set [1] the test system is SARS-CoV-2 hCoV-19/Japan/TY/WK-521 strain. The data set is described as follows: microbe, parasite or virus in culture. Format: cell-based. As to conditions: Severe acute respiratory syndrome coronavirus 2, HEK-293T, read-out: HEK 293T-AT EC50.
Data set [2] can be described thus: in vitro. The settings on record: male, rat, microsomes.
A short description of data set [3]: in vitro. The settings on record: both, human, microsomes.
A short description of data set [4]: in vitro. The settings on record: pig, LLC-PK1.
A short description of data set [5]: in vivo. The settings on record: male, Sprague-Dawley, rat.
Data set [6] can be described thus: in vivo. The settings on record: male, beagle, dog, iv, 0.1 mg/kg.
The nature of data set [7]: in vivo. As to conditions: female, cynomolgus monkey, iv, 0.1 mg/kg.
The mark [8] stands for this setting: read-out: SARS-CoV-2 3CL^pro IC50.

By IC50 is commonly meant the concentration needed to halve the response being measured. A word on the EC50: it is the concentration at which the effect is half-maximal. In the case of `Cc1cncc(-n2c(=O)c(Cc3cc(F)c(F)c(F)c3)c(N3Cc4ccccc4C3)n(CC#N)c2=O)c1` [Compound 4, 2-(6-(Isoindolin-2-yl)-3-(5-methylpyridin-3-yl)-2,4-dioxo-5-(3,4,5-trifluorobenzyl)-3,4-dihydropyrimidin-1(2H)-yl)-acetonitrile], the half-maximal inhibitory concentration (IC50) at SARS-CoV-2 3CL^pro (setting [8]) was 0.00076 µM. Further, in data set [1], the EC50 stood at 0.00494 µM. The amount remaining at 0.5 h stood at 3% in “in vitro [2]” and 1% in the data set “in vitro [3]”.
`Cc1cncc(-n2c(=O)c(Cc3cc(F)c(F)c(F)c3)c(N3CC4(CCOC4)C3)n(CC#N)c2=O)c1` [Compound 9, 2-(3-(5-Methylpyridin-3-yl)-2,4-dioxo-6-(6-oxa-2-azaspiro[3.4]-octan-2-yl)-5-(3,4,5-trifluorobenzyl)-3,4-dihydropyrimidin-1(2H)-yl)-acetonitrile] showed an IC50 against SARS-CoV-2 3CL^pro of 0.00837 µM. The EC50 in data set [1] was 0.0184 µM. Besides, the fraction remaining at 0.5 h in the data set “in vitro [2]” came out at 81%; in “in vitro [3]” it was 58%.
As for `Cc1cncc(-n2c(=O)c(Cc3cc(F)c(F)c(F)c3)c(N3CCCC3)n(CC#N)c2=O)c1` [Compound 5, 2-(3-(5-Methylpyridin-3-yl)-2,4-dioxo-6-(pyrrolidin-1-yl)-5-(3,4,5-trifluorobenzyl)-3,4-dihydropyrimidin-1(2H)-yl)-acetonitrile], the midpoint of inhibition on SARS-CoV-2 3CL^pro, the IC50, lay at 0.0118 µM. Moreover, in data set [1], the EC50 was found to be 0.0204 µM. The fraction remaining at 0.5 h in the data set “in vitro [2]” is 11%; in the data set “in vitro [3]”, 4%.
Take `Cc1cncc(-n2c(=O)c(Cc3cc(F)c(F)c(F)c3)c(N3CCC(C(F)(F)F)CC3)n(CC#N)c2=O)c1` [Compound 6, 2-(3-(5-Methylpyridin-3-yl)-2,4-dioxo-5-(3,4,5-trifluorobenzyl)-6-(4-(trifluoromethyl)-piperidin-1-yl)-3,4-dihydropyrimidin-1(2H)-yl)-acetonitrile]: half-maximal inhibition against SARS-CoV-2 3CL^pro (IC50) required 0.00151 µM. For the same compound, in data set [1], the EC50 is 0.00941 µM. The fraction remaining at 0.5 h amounted to 18% in “in vitro [2]” and 13% in “in vitro [3]”.
As to `N#CCn1c(N2CC(F)(F)C2)c(-c2ccc(F)c(Cl)c2)c(=O)n(-c2cncc(Cl)c2)c1=O` [Compound 16, 2-(5-(3-Chloro-4-fluorophenyl)-3-(5-chloropyridin-3-yl)-6-(3,3-difluoroazetidin-1-yl)-2,4-dioxo-3,4-dihydropyrimidin-1(2H)-yl)-acetonitrile], inhibition on SARS-CoV-2 3CL^pro was half-maximal at 0.00236 µM (IC50). Also, in data set [1], the EC50 was determined as 0.00779 µM. In addition, the results for the fraction remaining at 0.5 h in the data set “in vitro [2]” and in the data set “in vitro [3]” were 83% and 89%, respectively.
Take `Cc1cncc(-n2c(=O)[nH]c(N3Cc4ccccc4C3)c(Cc3cc(F)c(F)c(F)c3)c2=O)c1` [Compound 2, 6-(Isoindolin-2-yl)-3-(5-methylpyridin-3-yl)-5-(3,4,5-trifluorobenzyl)-pyrimidine-2,4(1H,3H)-dione]: 0.335 µM corresponded to half-maximal inhibition against SARS-CoV-2 3CL^pro (IC50). In addition, in data set [1], the EC50 is 1.49 µM. The values for the amount remaining at 0.5 h in the data set “in vitro [2]” and in the data set “in vitro [3]” were 36% and 45%, respectively.
The matching figures for `Cc1cncc(-n2c(=O)c(Cc3ccc(F)c(F)c3)c(N3CC4(CCOC4)C3)n(CC#N)c2=O)c1` [Compound 11, 2-(5-(3,4-Difluorobenzyl)-3-(5-methylpyridin-3-yl)-2,4-dioxo-6-(6-oxa-2-azaspiro[3.4]-octan-2-yl)-3,4-dihydropyrimidin-1(2H)-yl)-acetonitrile]: 0.0196 µM, 0.0418 µM, 71% and 55%.
Regarding `N#CCn1c(N2CC3(CCOC3)C2)c(-c2cccc(Cl)c2)c(=O)n(-c2cncc(Cl)c2)c1=O` [Compound 14, 2-(5-(3-Chlorophenyl)-3-(5-chloropyridin-3-yl)-2,4-dioxo-6-(6-oxa-2-azaspiro[3.4]-octan-2-yl)-3,4-dihydropyrimidin-1(2H)-yl)-acetonitrile], at SARS-CoV-2 3CL^pro, the “improvement of activity by substituents on the S2 phenyl group” value is given as “more than 10 -fold”. The IC50 at SARS-CoV-2 3CL^pro (setting [8]) was 0.000403 µM. For the same compound, the EC50 in data set [1] was 0.00157 µM. Moreover, the amount remaining at 0.5 h was 33% in “in vitro [2]” and 49% in “in vitro [3]”.
Compound `Cc1cncc(-n2c(=O)c(Cc3ccccc3)c(N3CC4(CCOC4)C3)n(CC#N)c2=O)c1` [Compound 12, 2-(5-Benzyl-3-(5-methylpyridin-3-yl)-2,4-dioxo-6-(6-oxa-2-azaspiro[3.4]-octan-2-yl)-3,4-dihydropyrimidin-1(2H)-yl)-acetonitrile] gave an IC50 at SARS-CoV-2 3CL^pro of 0.0996 µM. Moreover, in data set [1], the EC50 is 0.117 µM. Also, the share remaining at 0.5 h in “in vitro [2]” and in “in vitro [3]” was 70% throughout.
With `Cc1cncc(-n2c(=O)c(Cc3cc(F)c(F)c(F)c3)c(N3CC4(CCOCC4)C3)n(CC#N)c2=O)c1` [Compound 7, 2-(3-(5-Methylpyridin-3-yl)-2,4-dioxo-6-(7-oxa-2-azaspiro[3.5]-nonan-2-yl)-5-(3,4,5-trifluorobenzyl)-3,4-dihydropyrimidin-1(2H)-yl)-acetonitrile], the IC50 against SARS-CoV-2 3CL^pro was determined as 0.014 µM. Besides, the EC50 in data set [1] turned out to be 0.0419 µM. Moreover, the share remaining at 0.5 h in “in vitro [2]” was 77%; in “in vitro [3]” it was 58%.
Turning to `Cc1cncc(-n2c(=O)c(Cc3cc(F)c(F)c(F)c3)c(N3CC4(C3)CC(F)(F)C4)n(CC#N)c2=O)c1` [Compound 8, 2-(6-(6,6-Difluoro-2-azaspiro[3.3]-heptan-2-yl)-3-(5-methylpyridin-3-yl)-2,4-dioxo-5-(3,4,5-trifluorobenzyl)-3,4-dihydropyrimidin-1(2H)-yl)-acetonitrile], the IC50 against SARS-CoV-2 3CL^pro came to 0.00563 µM. Besides, the EC50 in data set [1] is 0.0144 µM. The fraction remaining at 0.5 h in “in vitro [2]” is 62%; in the data set “in vitro [3]” it was 36%.
In the same order, the values of `N#CCn1c(N2CC3(CCOC3)C2)c(-c2ccccc2)c(=O)n(-c2cncc(Cl)c2)c1=O` [Compound 13, 2-(3-(5-Chloropyridin-3-yl)-2,4-dioxo-5-phenyl-6-(6-oxa-2-azaspiro[3.4]-octan-2-yl)-3,4-dihydropyrimidin-1(2H)-yl)-acetonitrile] are 0.00716 µM, 0.0231 µM, 58% and 55%.
On to `Cc1cncc(-n2c(=O)nc(N3Cc4ccccc4C3)n(Cc3cc(F)c(F)c(F)c3)c2=O)c1` [Compound 1, 6-(Isoindolin-2-yl)-3-(5-methylpyridin-3-yl)-1-(3,4,5-trifluorobenzyl)-1,3,5-triazine-2,4(1H,3H)-dione], for which the IC50 against SARS-CoV-2 3CL^pro came to 0.143 µM. Moreover, in data set [1], the EC50 was 0.264 µM. Moreover, the values for the amount remaining at 0.5 h in “in vitro [2]” and in the data set “in vitro [3]” were 19% and 49%, respectively.
As a reminder, the Papp A→B is the apparent permeability from the apical to the basolateral side of a cell layer. Read a high Papp A→B as ready permeation. As usually defined, the clearance is a measure of how efficiently the substance is removed, as volume per time. Read a high clearance as a high capacity for elimination. In general, half-life refers to the time needed for the level to fall by half in the phase considered. One may read the bioavailability as dose-corrected exposure relative to a reference, in per cent. Read a high bioavailability as good availability. In the case of `N#CCn1c(N2CC(O)(C(F)(F)F)C2)c(-c2ccc(F)c(Cl)c2)c(=O)n(-c2cncc(Cl)c2)c1=O` [Compound 18, 2-(5-(3-Chloro-4-fluorophenyl)-3-(5-chloropyridin-3-yl)-6-(3-hydroxy-3-(trifluoromethyl)-azetidin-1-yl)-2,4-dioxo-3,4-dihydropyrimidin-1(2H)-yl)-acetonitrile], the midpoint of inhibition at SARS-CoV-2 3CL^pro, the IC50, lay at 0.000391 µM. The compound also displayed a Papp A→B in the data set “in vitro [4]” of 12.6 nm/s. For the same compound, the figures for the clearance in “in vivo [5]” (iv), in the data set “in vivo [6]” and in the data set “in vivo [7]” were 0.401 L/h/kg, 0.275 L/h/kg and 1.18 L/h/kg, respectively. In addition, the values for the half-life in the data set “in vivo [5]” (iv), in “in vivo [6]” and in “in vivo [7]” were 6.89 h, 8.74 h and 3.48 h, respectively. In the data set “in vivo [5]” (po, 1 umol/kg), this compound showed a bioavailability of 38%. Also, in data set [1], the EC50 came out at 0.00382 µM. The results for the share remaining at 0.5 h in the data set “in vitro [2]” and in the data set “in vitro [3]” were 99% and 103%, respectively.
For the compound `Cc1cncc(-n2c(=O)c(Cc3cc(F)c(F)c(F)c3)c(N3Cc4ccccc4C3)n(C)c2=O)c1` [Compound 3, 6-(Isoindolin-2-yl)-1-methyl-3-(5-methylpyridin-3-yl)-5-(3,4,5-trifluorobenzyl)-pyrimidine-2,4(1H,3H)-dione], the midpoint of inhibition against SARS-CoV-2 3CL^pro, the IC50, lay at 0.179 µM. Further, the EC50 in data set [1] amounted to 0.191 µM. The share remaining at 0.5 h in the data set “in vitro [2]” and in the data set “in vitro [3]” was 1% in each case.
On SARS-CoV-2 3CL^pro, `N#CCn1c(N2CC3(CCOC3)C2)c(Cc2cc(F)c(F)c(F)c2)c(=O)n(-c2cncc(Cl)c2)c1=O` [Compound 10, 2-(3-(5-Chloropyridin-3-yl)-2,4-dioxo-6-(6-oxa-2-azaspiro[3.4]-octan-2-yl)-5-(3,4,5-trifluorobenzyl)-3,4-dihydropyrimidin-1(2H)-yl)-acetonitrile] displayed an IC50 of 0.00827 µM. For the same compound, the EC50 in data set [1] came out at 0.0253 µM. Besides, the results for the share remaining at 0.5 h in the data set “in vitro [2]” and in “in vitro [3]” were 54% and 17%, respectively.
Regarding `N#CCn1c(N2CC3(CCOC3)C2)c(-c2ccc(F)c(Cl)c2)c(=O)n(-c2cncc(Cl)c2)c1=O` [Compound 15, 2-(5-(3-Chloro-4-fluorophenyl)-3-(5-chloropyridin-3-yl)-2,4-dioxo-6-(6-oxa-2-azaspiro[3.4]-octan-2-yl)-3,4-dihydropyrimidin-1(2H)-yl)-acetonitrile], at SARS-CoV-2 3CL^pro, the half-inhibitory concentration (IC50) was found to be 0.000493 µM and the “improvement of activity by substituents on the S2 phenyl group” value is “more than 10 -fold”. Besides, in data set [1], the concentration giving a half-maximal response (EC50) was 0.00448 µM. In addition, in “in vitro [2]”, the amount remaining at 0.5 h worked out at 58%. Moreover, the amount remaining at 0.5 h in the data set “in vitro [3]” was 55%.
